According to ChEMBL document CHEMBL3507680, “University of Dundee, Gates Library screen for HepG2 cell viability”:

Assay: Human HepG2 cell viability assay in 384 well format
Assay type: toxicity, cell-based
Set-up: dose 125 nL, time 70.5 hour; concentration not given beside the values
Conditions: HepG2 cells, read-out: Inhibition

Row | SMILES | cytotoxicity at 70.5 h
1 | CCN1CCOC(CNCc2cnc(C(C)(C)C)s2)C1 (centres undefined) | -5.25%
2 | COCCN1C(=O)CC[C@]12CC[C@@H](NC(=O)c1cc(C)on1)CC2 | -5.63%
3 | CCN(CCC1CCN(C(=O)NCc2nncn2CC)CC1)CC1CC1 | 15.6%
4 | CCc1c(C)sc2nc3n(CCN(C)C)nc(SC)n3c(=O)c12 | 20.8%
5 | CC(C)c1nc(CN(C)C(=O)CNS(=O)(=O)c2cccs2)cs1 | -6.67%
6 | Cc1cc(C)c2c(N3CCN(C(=O)N(C)C)CC3)ncnc2n1 | -3.44%
7 | O=C(NCc1ccco1)[C@@H]1CCO[C@@H]2CCN(c3ncccn3)C[C@@H]21 | 9.24%
8 | CCc1c(C)nc(C)nc1N1C[C@@H](CN(CC)CCO)[C@@H](CO)C1 | 10.3%
9 | Cc1cc(C)n(CC2CCN(CC(O)COc3ccccc3)CC2)n1 (centres undefined) | -6.54%
10 | CC1(c2nccs2)CCN(C(=O)CCN2CCOCC2)CC1 | -1.94%
11 | O=C(NCc1cscn1)NC1CCN(c2ncccc2Cl)C1 (centres undefined) | -2.49%
12 | CCN1CCCC1CN(CCN(C)C)S(=O)(=O)c1ccc(C#N)cc1 (centres undefined) | 2.57%
13 | c1csc(-c2nc(CN3CCOC(Cn4cncn4)C3)co2)c1 (centres undefined) | -0.51%
14 | c1cc(-c2cnc(NC3CC3)nc2[C@H]2CCCO2)ccn1 | -7.2%
15 | CNc1cc(C)nc(N2CCC3(CC2)[C@H](O)C[C@@H]3OC)n1 | -2.45%
16 | CN(C)C(=O)c1ccc2ccc(N3CCN(CC4CC4)CC3)n2c1 | 19.2%
17 | COc1ccc2[nH]cc(CCNC(=O)C3CCCN(C(C)=O)C3)c2c1 (centres undefined) | -9.73%
18 | Cc1cnc(-c2nc(C3CCCN(Cc4ccccc4C)C3)no2)cn1 (centres undefined) | 21.7%
19 | Cc1cccc2c1nc(CCO)n2-c1ccc(N)nc1 | -8.34%
20 | CCN(CC)C(CNC(=O)c1ccnc(N(C)C)c1)c1ccsc1 (centres undefined) | -5.28%
21 | COc1ccccc1C(=O)N1CCNCC1C(N)=O (centres undefined) | -2.25%
22 | CNC(=O)c1cc2c(nc1NCC1CC1)CCN(c1ccncn1)CC2 | -24.6%
23 | Cc1cc(CN2CCN(C(C)C(=O)NCc3cccs3)CC2)no1 (centres undefined) | -2.27%

Row | SMILES | cytotoxicity at 70.5 h
24 | CN1C(=O)C2(CCCN(C(=O)c3cccnc3O)C2)c2ccccc21 (centres undefined) | 21%
25 | Cn1cc(CNc2nc3cc(Cl)ccc3n2C)cn1 | -0.411%
26 | CN(CC(=O)Nc1ccncc1)C1CCCN(c2cccnn2)C1 (centres undefined) | -3.61%
27 | COc1ncccc1NC(=O)N(Cc1ccc(C)o1)C1CC1 | -9.49%
28 | Cc1cc2nc(C(C)C)cc(N[C@H](C(N)=O)C(C)C)n2n1 | 32.4%
29 | COCC1COCCC12CCN(C(=O)CCc1ccccc1)CC2 (centres undefined) | 5.59%
30 | CCn1ccnc1CN(C)c1cc(C2CCCNC2)nc(C)n1 (centres undefined) | -1.8%
31 | COCCN1CCCC1c1nccnc1Nc1nc(C)cs1 (centres undefined) | -21.9%
32 | Cc1ccc(-c2cn3c(n2)CO[C@@H](CNCc2nccn2C)C3)cc1 | -5.86%
33 | c1cnc(N2CCCC3(COCCN(CC4CC4)C3)C2)nc1 (centres undefined) | -10%
34 | O=C(CCn1cncn1)N1C[C@H]2CC[C@@H]1CN(Cc1cccnc1)C2 | -9.48%
35 | CN(CC(F)(F)F)C(=O)CNC(=O)Cc1ccc(O)cc1Cl | -9.7%
36 | O=C(NCCc1c[nH]cn1)c1ccc(S(=O)(=O)NC2CCOC2)cc1 (centres undefined) | -0.712%
37 | Cc1ccc(NC2CCN(C(=O)c3cnc(C)s3)CC2)nn1 | -6.52%
38 | Cc1cc(CN2CCN(C(=O)NC(C)Cn3ccnc3)CC2)no1 (centres undefined) | -3.28%
39 | O=C(NCC(O)c1cccs1)c1cccc(Cl)c1 (centres undefined) | -2.42%
40 | CCCN(CCc1cccc(F)c1)c1ccc2nnnn2n1 | -22.2%
41 | c1ccc(CN2CCN(Cc3cnc(C4CCCCO4)nc3)CC2)cc1 (centres undefined) | 1.9%
42 | CO[C@@H]1CN(c2ccccc2)S(=O)(=O)[C@@]12CCN(Cc1ccccc1)C2 | -1.84%
43 | NC(=O)C1CCCN(C(=O)c2ccc(-n3ccnc3)cc2)C1 (centres undefined) | -5.88%
44 | Cc1nn(C)cc1S(=O)(=O)NCC(c1ccccc1)N1CCCCCC1 (centres undefined) | 17.9%
45 | CCCNC(=O)Cn1cc(C#N)c(=O)c2cc(Br)ccc21 | -8.09%
46 | OCCN1CC2(CCN(c3ccccc3)C2)C1 | 0.92%

Row | SMILES | cytotoxicity at 70.5 h
47 | Cc1cccc(C(=O)N2CCn3cnc(COCC4CC4)c3C2)n1 | -2.97%
48 | COc1c(CNCCc2c[nH]c3ccccc23)c(C)nn1C | 22.7%
49 | CC(C)CC(=O)NCCn1nc(C2CCNC2)c2cccnc21 (centres undefined) | -2.13%
50 | O=S(=O)(NCC1CCOc2ccccc2C1)N1CCOCC1 (centres undefined) | -14.9%
51 | CN(C)c1ccc(C(=O)N2CCCC2c2cnn(C)c2)nn1 (centres undefined) | -11.7%
52 | O=C(N1CCCCC1)N1CCN(CC(O)c2ccccc2)CC1 (centres undefined) | -3.61%
53 | CN(C)Cc1ccnc(NS(=O)(=O)Cc2cccc(F)c2)c1 | 1.98%
54 | CC(=O)Nc1ccc(/C=C/c2ncc(C(=O)O)s2)cc1 | -1.46%
55 | Cc1csc(C(C)(C)NCc2ncc(-c3ccc(F)cc3)o2)n1 | -4.53%
56 | CCC(NC1CCCC1)c1ccc(S(C)(=O)=O)cc1 (centres undefined) | -12.8%
57 | COc1ccccc1C1CNC(=O)c2nc(-c3cn(C)nc3C)[nH]c2C1 (centres undefined) | 8.73%
58 | COC(=O)CN(C(=O)C(C)c1c(F)cccc1F)c1cccc(C)n1 (centres undefined) | -4.95%
59 | O=C(c1ccc(O)c(Cl)c1)N(Cc1ccncc1)C1CC1 | -2.89%
60 | O=S(=O)(CC1CCCCC1)NCc1ccnc(O)c1 | -7.43%
61 | O[C@H]1CN(Cc2cc3ccccc3o2)CC[C@@]12CCCO2 | -8.98%
62 | Cc1ccc(CN(C(=O)NC2CCS(=O)(=O)C2)C2CC2)o1 (centres undefined) | -7.82%
63 | CN1C(=O)CC(C(=O)O)C12CCN(c1ccc3c(n1)CCCC3)CC2 (centres undefined) | -5.19%
64 | O=C(Cc1csc(-c2nnc[nH]2)n1)N1CCCC1Cn1cccn1 (centres undefined) | -8.18%
65 | CC(=O)c1ccc(C(=O)NCCCOC(C)c2ccccc2)s1 (centres undefined) | 1.1%
66 | Cc1cccc(-c2nc(CN3CCc4c(ncn4C)C3)no2)c1 | 20.5%
67 | O=C(CSc1nnc[nH]1)NCc1sccc1Br | -5.23%
68 | CN(C)C(=O)CN1C[C@H]2CCN(C(=O)c3ccccc3)CC[C@H]2S1(=O)=O | -10.6%
69 | O=C(CCn1cncn1)Nc1ccc(F)cc1OCC1CC1 | -9.3%

Row | SMILES | cytotoxicity at 70.5 h
70 | Cc1ccn(CCNC(=O)C2CCN(S(=O)(=O)c3ccc(F)cc3)C2)n1 (centres undefined) | 8.09%
71 | CSC(C)(C)CNC(=O)NCc1cccc(-n2ccnc2)c1 | -12.4%
72 | CCC(CN1CCCC1)n1cncc1-c1cnn(Cc2ccccc2)c1 (centres undefined) | -4.48%
73 | CC1CCN(CC2CCN(C(=O)c3c[nH]c4ncccc34)CC2)CC1 | -19.4%
74 | CNc1nc(C2CCCN2C(C)=O)nc2c1CN(CCO)CC2 (centres undefined) | -3.16%
75 | CCCn1nc(C)c(CNC(=O)C2COc3c(cccc3OC)C2)c1C (centres undefined) | -10.5%
76 | C[C@H]1C[C@H]2CN(Cc3ccccn3)CC[C@@H]2O1 | -3.43%
77 | Cc1csc(N2CCN(C(=O)CCn3cccn3)CC2)n1 | 3.65%
78 | COC[C@]1(O)CCN(C2CCN(c3ccc(Cl)cc3)CC2)CC1(C)C | 22.5%
79 | O=C(NCCC1CCCCO1)c1cc(COc2cncc(Cl)c2)on1 (centres undefined) | 14.4%
80 | FC(F)(F)c1cccc(OC2CCN(Cc3ccccn3)CC2)c1 | -0.484%
81 | CN1CCN(c2cccc(Cl)c2CNCCS(C)(=O)=O)CC1 | -8.06%
82 | Cc1cccc2c1cnn2CCC(=O)NCc1csc(C2CC2)n1 | -8.07%
83 | O=S(=O)(C1CC1)N1CCC2(CC1)COC(COc1cccnc1)C2 (centres undefined) | -10.2%
84 | COc1c(Br)cccc1CCNC(=O)c1ncoc1C | 9.9%
85 | O=C1CCC2(CCCN(C(=O)c3ccccn3)CC2)N1 (centres undefined) | -1.45%
86 | O=C(NC1CCCN(c2ccccc2Cl)C1)c1nc(=O)[nH][nH]1 (centres undefined) | 25.3%
87 | c1cc(-c2cn3nccc3nc2C2CCCCC2)nc(N2CCCC2)n1 | -7.05%
88 | Cc1cc(C(=O)N(C)C2CCN(C)C2)c2ccc(F)cc2n1 (centres undefined) | 23.7%
89 | O=C(c1cccs1)N1CCCn2cnc(COCC3CC3)c2C1 | -12.8%
90 | Cc1noc(C2CCN(Cn3cc(Cl)cn3)CC2)n1 | -4.35%
91 | Cc1nc(C)n(CC2CCCCN2CC(=O)NCc2ccccn2)n1 (centres undefined) | 2.56%
92 | O=C(C1CCCC1)N1CCC(c2ncc3c(n2)CCNC3)C1 (centres undefined) | -5.84%

Row | SMILES | cytotoxicity at 70.5 h
93 | CC(C)CC(=O)N1CCC2(CC1)NC(=O)[C@H]1CN(C(=O)N(C)C)C[C@H]12 | -7.99%
94 | Cc1nc(N2CCC(C)CC2)ncc1-c1cc(O)nc(N2CCCC2)n1 | 1.46%
95 | CCn1cc(S(=O)(=O)NC(CO)Cc2ccccc2)cn1 (centres undefined) | -7.27%
96 | COc1ccc(CC(=O)N2CCN(Cc3ccco3)C[C@@H]2C)cc1 | -7.32%
97 | Cn1nc(C(=O)NC2CC2)cc1NC(=O)C1CC1 | -7.34%
98 | COC(=O)CCNC(=O)c1c[nH]cc1-c1cccc(OC)c1 | 3.36%
99 | NS(=O)(=O)c1cnc(NCC2(c3cccc(F)c3)CCOCC2)s1 | -0.912%
100 | CC1=C(C(=O)N2CCCC(Cn3cc(CO)nn3)C2)OCCO1 (centres undefined) | -2.23%
101 | Nc1cc(C(=O)NCC2CCN(Cc3cccc(O)c3)C2)ccn1 (centres undefined) | 18.3%
102 | CCCc1ncc(C(=O)c2ccc(OC)cc2)n1C | 14.7%
103 | Cc1ccc(CN2CC[C@H]3C[C@H](c4nc(C5CC5)cs4)O[C@@H]3C2)o1 | -6.11%
104 | CCC(C(=O)N1CCCSCC1)N1CCCC1=O (centres undefined) | 12.1%
105 | CC(C)CC(NC(=O)c1cc(-c2cccn2C)n[nH]1)c1ncnn1C (centres undefined) | -1.67%
106 | Cc1occc1C(=O)N1CCc2c(CNc3ncccn3)cncc2C1 | -1.28%
107 | Cc1nn(C)c(Cl)c1C1CCCN1CC(=O)N1CCOCC1 (centres undefined) | 1.93%
108 | CC(C)Oc1ncccc1CNC(=O)N1CCOCC1 | -14.9%
109 | CCn1cnnc1C1CCN(C(=O)COc2ccc(Cl)cc2)CC1 | -9.99%
110 | Nc1cc2c(nn1)CCN(C(=O)c1ccc(Oc3cccnc3)cc1)C2 | -9.26%
111 | O=C(C1CN(c2ncc(F)cn2)CC12CCOCC2)N1CC=CC1 (centres undefined) | -5.64%
112 | Fc1ccc(CNCCn2cccn2)cc1F | 16.8%
113 | CCN1CCN(Cc2nc(CCc3ccccc3)n[nH]2)CC1 | 29.9%
114 | O=C1NC[C@H]2CN(Cc3nccs3)CCN12 | -8.47%
